Test results taken from patent US6017719A, “Positive and positive/negative cell selection mediated by peptide release” (Nexell Therapeutics, Inc., priority 1995, dated 2000).
“Also recorded” adds a separate entry of the source. Ends that are not written are not given here.

Assays:
561 antibody [1] = assay: Chemical reagents as enhancers of peptide-dependent release of CD34+ cells from the 561 antibody (FACS assay); format: cell-based
Procedure: The ability of chemical reagents to enhance peptide-dependant release of captured CD34+ cells from the 561 antibody was examined. […] Since long-term viability of the low pH-released cells was not known, conditions which could alter the pH to a more neutral value (about pH5-7) were desirable.
Reagents which were known to affect electrostatic and hydrogen bonding interactions of proteins were tested in addition to excluded-volume polymers. Included in these studies were sodium chloride, sodium acetate, magnesium chloride, calcium chloride, polyethylene glycol (PEG), ficoll, sodium succinate, sodium citrate, protamine sulphate, spermine, and polybrene.

561 antibody [2] = assay: KG1a or tHL60 cell-based FACS assay: release of prebound 561 antibody; format: binding
Source text: Five peptides representing hexapeptides selected from biopannings were synthesized and tested for their ability to serve as release agents in the KG1a or tHL60 cell-based FACS assay.
The peptides (see Table 27 below) were synthesized by Research Genetics and tested without purification. The 9069 antibody was used as a positive control and released with the 9069N peptide (Ac-Q Q G W F P-K D) (SEQ ID NO:9). This control served to test for the KG1a cells and the goat-anti-mouse FITC secondary detection antibody. Hexapeptide sequences identified for the 561 antibody were tested for their ability to displace prebound 561 antibody.
HPLC-purified peptides 561C and D were tested in the cell-based KG1a FACS assay.
Functional release activity of purified 561D peptide at pH 4 and 6 was tested.
Functional release activity of purified 561C and 561D peptides at pH 4, 5, 6, 7, 8, and 9 was tested.
Functional release activity of crude 561A,B,C,D, M, P, Q, CDR2H, CDR2L, CDR3H, CDR3L, 34B, 34C,34D,34E and 34F peptides adjusted to pH 7 and pH unadjusted (~pH3.8-4.3) was tested.

anti-CD34 antibody, 9069 = assay: KG1a cell FACS assay: release by peptides of 9069 antibody prebound to cells; format: binding, mouse; conditions: peptide added to KG1a cells with prebound 9069; 10^5 to 10^6 molar excess, 30 min, room temperature
Procedure: These experiments were performed following a similar procedure to the binding experiments except that the anti-CD34 antibody, 9069, was incubated with KG1a cells first, followed by addition of peptide. The experimental outline is schematically shown below:
KG1a Cell Assay to Test for Release by Peptides of 9069 Antibody Bound to Cells.
Anti-CD34 antibody, 9069 (0.i microgram) was incubated with KG1a cells (10^6) for 30 minutes at room temperature (about 22° C.). Molar excesses of 10^5 to 10^6 times the amount of peptide to antibody were tested for the ability to displace the prebound antibody. Peptides were incubated with the antibody-cell complexes for 30 minutes at room temperature (approximately 22° C.). Remaining bound antibody was detected using the FITC-goat anti-mouse IgG reagent described in Example 3.
Analysis of the variant peptide, 9069Q2, was done in parallel with the 9069N peptide. This analysis provides quality control information on reagents including the antibody, 9069, and the cells, KG1a. FACScan assays included a negative control of KG1a cells alone and positive control samples of KG1a cells with the 9069 antibody bound and detected with a secondary antibody, goat-anti-mouse IgG-FITC.

CD34 cells = assay: Stem cell selection with 9069 antibody, sheep-anti-mouse beads and releasing agent; format: cell-based, human; conditions: chymopapain release
CD34+ cells = assay: CD34+ cell isolation on automated cell separation apparatus, then culture with cytokines; format: cell-based, human
Procedure: CD34+ cells were also isolated from human mobilized peripheral blood using the automated cell separation apparatus described in U.S. Pat. No. 5,536,475 and the method essentially as described in WO 95/24969 Both U.S. Pat. No. 5,536,475 and WO 95/24969 are herein expressly incorporated by reference. Chymopapain was used as the control releasing agent, and 25 mg of the peptide 9069N (Table 11) was used as the test releasing agent.

[3] = Solubilization of peptides in DPBS plus 1% HSA; format: physicochemical
Source text: 9079A-G peptides were solubilized in Dulbecco's phosphate buffered saline (DPBS) plus 1% HSA.

[4] = crude peptide, pH unadjusted (around pH 3.8-4.3; low pH ~4)
[5] = Table 7, mobilized peripheral blood (5.86% CD34 start)
[6] = Table 10, mobilized peripheral blood (0.68% CD34 start)

[Cl-].[Cl-].[Mg+2] [magnesium chlordie, magnesium chloride]
enhancement of peptide mediated release of CD34+ selected cells (561 antibody [1]): Less dramatic results

CC(=O)[O-].[Na+] [sodium acetate]
enhancement of peptide mediated release of CD34+ selected cells (561 antibody [1]): significant activity as an enhancement reagent

A C K W C R (ACKWCR) [Peptide 561M]
release activity on prebound 561 antibody (561 antibody [2]; crude peptide, pH 7): none of these peptides showed release activity; also recorded: did not show release activity
release activity on prebound 561 antibody (561 antibody [2]; [4]): showed functional release activity; also recorded: showed significant release activity
release of 561 antibody prebound to KG1a or tHL60 cells (in words) (561 antibody [2]; crude peptides, pH not stated): able to release 561 antibody prebound to KG1a or tHL60 cells
release activity on prebound 561 antibody (561 antibody [2]; pH 6): did not show release activity

A D G A-L I S Q V S-Q A K D (ADGALISQVSQAKD) [Peptide 9069C]
% Inhibition of Binding (anti-CD34 antibody, 9069): 32%

A I Y P G D G D T R Y T Q K F V V (AIYPGDGDTRYTQKFVV) [Peptide 561CDR2H]
release activity on prebound 561 antibody (561 antibody [2]; crude peptide, pH 7): none of these peptides showed release activity; also recorded: did not show release activity
release activity on prebound 561 antibody (561 antibody [2]; [4]): showed functional release activity; also recorded: showed significant release activity
release activity on prebound 561 antibody (561 antibody [2]; pH 6): did not show release activity

Chymopapain
% CD34 CELLS Negative Fraction (CD34 cells; [5]): 2.5%
% CD34 CELLS Positive Fraction (CD34 cells; [5]): 94%
% Capture (CD34 cells; [5]): 62%
% CD34 CELLS Negative Fraction (CD34 cells; Table 8, mobilized peripheral blood (1.05% CD34 start)): 0.16%
% CD34 CELLS Negative Fraction (CD34 cells; Table 9, bone marrow (3.66% CD34 start)): 0.34%
% CD34 CELLS Negative Fraction (CD34 cells; [6]): 0.12%
% Yield (CD34 cells; [6]): 68%
purity of the positively selected CD34+ cells (CD34+ cells; mobilized peripheral blood, 25 mg peptide 9069N or chymopapain control): greater than 90%
expansion in cell number (CD34+ cells; released CD34+ cells of first experiment, culture with cytokines for 12 days): 68 fold

IQEFGVKD [Peptide 9079F, IQEFGV--KD]
solubility [3]: solubilized

KDVYSLWPKD [Peptide 9079H, KD--VYSLWP--KD]
solubility [3]: solubilized

NLQGEFKD [Peptide 9079D, NLQGEF--KD]
solubility [3]: solubilized

PGSPLGKD [Peptide 9079A, PGSPLG--KD]
solubility [3]: solubilized

QYTQPKD [Peptide 9079C, QYTQPK--D]
solubility [3]: solubilized

RSFYYRD [Peptide 9079E, RSFYYR--D]
solubility [3]: insoluble

YSRLGFKD [Peptide 9079B, YSRLGF--KD]
solubility [3]: solubilized
